# Assay results reported in ChEMBL document CHEMBL1165921, “New potent inhibitors of tyrosinase: novel clues to binding of 1,3,4-thiadiazole-2(3H)-thiones, 1,3,4-oxadiazole-2(3H)-thiones, 4-amino-1,2,4-triazole-5(4H)-thiones, and substituted hydrazides to the dicopper active site” (Bioorg Med Chem, 2010).
# Molecular target: T1, Tyrosinase (Agaricus bisporus, UniProt O42713)
# T1 sequence (O42713 whole entry): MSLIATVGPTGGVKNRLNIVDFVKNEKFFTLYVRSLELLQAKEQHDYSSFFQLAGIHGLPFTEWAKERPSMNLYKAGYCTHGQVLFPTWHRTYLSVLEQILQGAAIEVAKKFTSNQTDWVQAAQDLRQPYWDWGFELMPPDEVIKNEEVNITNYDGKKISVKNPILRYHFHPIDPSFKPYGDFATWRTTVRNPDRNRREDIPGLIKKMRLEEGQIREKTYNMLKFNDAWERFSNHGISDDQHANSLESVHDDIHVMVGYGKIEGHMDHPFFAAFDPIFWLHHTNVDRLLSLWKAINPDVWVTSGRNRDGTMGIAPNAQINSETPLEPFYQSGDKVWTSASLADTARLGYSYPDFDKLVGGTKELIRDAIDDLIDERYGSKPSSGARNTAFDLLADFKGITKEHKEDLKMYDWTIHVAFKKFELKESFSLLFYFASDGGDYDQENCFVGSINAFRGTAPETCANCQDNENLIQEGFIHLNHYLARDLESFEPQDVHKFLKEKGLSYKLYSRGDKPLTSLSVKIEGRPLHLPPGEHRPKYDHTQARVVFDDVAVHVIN
# Description: Inhibition of mashroom tyrosinase
row,SMILES,Ki [µM]
1,S=c1[nH]nc(-c2n[nH]c(=S)o2)o1,69.4
2,Sc1nnc(Cc2nnc(S)o2)o1,4.42
3,NNC(=O)c1ccc2ccccc2c1,99.6
4,Sc1nnc(Cc2nnc(S)s2)s1,0.49
5,Sc1nnc(C(c2ccccc2)c2ccccc2)o1,6.76
6,Sc1nnc(-c2cccc(OCc3ccccc3)c2)o1,3.64
7,NNC(=O)c1ccc(O)cc1,177
8,S=c1[nH]nc(-c2ccc(OCc3ccccc3)cc2)o1,1.35
9,Sc1nnc(CCCc2nnc(S)o2)o1,1.9
10,Oc1cccc(-c2nnc(S)o2)c1,18.5
11,S=c1[nH]nc(-c2cccc3ccccc23)o1,33.6
12,NNC(=O)c1ccc(OCc2ccccc2)cc1,49
13,CC(C)(C)[Si](C)(C)Oc1ccc(-c2nnc(S)s2)cc1,0.53
14,Nn1c(-c2ccncc2)n[nH]c1=S,1.01
15,Oc1ccc(-c2nnc(S)s2)cc1,0.19
16,Sc1nnc(-c2ccncc2)o1,14.2
17,Sc1nnc(-c2ccccc2)s1,1.31
18,S=c1[nH]nc(C(c2ccccc2)c2ccccc2)s1,5.2
19,S=c1[nH]nc(-c2ccccc2)o1,6.47
20,Nn1c(-c2ccc(O)cc2)n[nH]c1=S,2.4
21,Oc1ccc(-c2nnc(S)o2)cc1,1.77
22,S=c1[nH]nc(C2CCCCC2)o1,4.94
23,Sc1nnc(Cc2ccccc2)o1,3.67
24,S=c1[nH]nc(-c2ccncc2)s1,2.47
25,S=c1[nH]nc(-c2n[nH]c(=S)s2)s1,2.9
